From US20060074109A1, “Use of inhibitors of 24-hydroxylase in the treatment of cancer” (Sapphire Therapeutics, Inc., priority 2004, published 2006)

How the values were obtained:
1αOHase in OVCAR-3 cells = target: T1, 1αOHase in OVCAR-3 cells (Homo sapiens, UniProt O15528); test: Metabolic analysis of 25(OH)D3: 1,25(OH)2D3 production; format: cell-based
T1 construct: showing the expression of 1αOHase in OVCAR-3 cells; endogenous in cells; host or cells: OVCAR-3
T1 sequence (O15528 1-508): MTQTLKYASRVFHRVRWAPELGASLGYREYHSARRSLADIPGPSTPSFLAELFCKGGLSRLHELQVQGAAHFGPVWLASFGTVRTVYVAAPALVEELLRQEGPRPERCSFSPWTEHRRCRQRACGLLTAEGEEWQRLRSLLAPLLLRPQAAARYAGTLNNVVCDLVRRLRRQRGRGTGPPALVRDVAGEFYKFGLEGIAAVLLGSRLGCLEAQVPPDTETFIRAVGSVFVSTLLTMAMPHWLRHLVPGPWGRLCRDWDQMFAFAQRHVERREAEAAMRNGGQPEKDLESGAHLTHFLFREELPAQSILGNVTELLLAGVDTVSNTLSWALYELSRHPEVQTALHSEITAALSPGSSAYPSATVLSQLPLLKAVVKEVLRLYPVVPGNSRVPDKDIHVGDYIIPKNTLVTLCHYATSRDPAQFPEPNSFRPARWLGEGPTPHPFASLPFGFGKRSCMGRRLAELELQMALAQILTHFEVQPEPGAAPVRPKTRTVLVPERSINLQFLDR
Description: OVCAR-3 cells (1.5×10^6 cell/flask) were plated on T25 culture flasks. One day after plating, cells were treated with 500 nM 25(OH)D3 in RPMI 1640 medium supplemented with 10% FBS, 10 μg/ml insulin, 0.25% glucose and antibiotics (100 IU/ml penicillin, 100 μg/ml streptomycin). After 0, 3 or 24 hr, the medium was collected and the cell monolayer was extracted with 1 ml methanol. After 15 min incubation at room temperature, the methanol was transformed into the same tube than the sample medium. The samples for the measurement of the 25(OH)D3 metabolites were purified using the acetonitrile-C 18 Sep-Pak (Waters Corporation, Milford, Mass.) procedure (Turnbull, H., Trafford, D. J., Makin, H. L., “A Rapid and Simple Method for the Measurement of Plasma 25-hydroxyvitamin D2 and 25-hydroxyvitamin D3 Using Sep-Pak C 18 Cartridges and a Single High-Performance Liquid Chromatographic Step,” Clin. Chim. Acta., 120:65-76 (1982)) followed by separation of the metabolites by a high-performance liquid chromatography. […] The second measurement was done following the same procedure except dextran charcoal-treated FBS was used instead of FBS, 24OHase inhibitor (200 nM VID400) was used with the 500 nM 25(OH)D3 treatment, and the samples were collected only after 0 and 24 hr.

[1] = tested on: 24OHase mRNA in OVCAR-3 cells; test: Quantitative RT-PCR of 24OHase mRNA; format: cell-based, human; conditions: 100 nM
Description: Ethanol was used as a vehicle, and it was also added to the control cells. For RNA extraction, the cells were collected 4, 6 and 24 hr after the treatment with vitamin D compound or vehicle. RNA extractions were done with TRIZOL reagent (GIBCO Invitrogen Corporation, Paisley, UK). The integrity of RNA samples was confirmed on gel electrophoresis. […] The reactions for 24-hydroxylase were performed in the LightCycler instrument (Roche Diagnostics, Basel, Switzerland) from 300 ng total RNA. PBGD (human porphobilinogendeaminase) mRNA was used as an […] control. […] Nucleotides, Tth DNA polymerase (DNA polymerase and reverse transcriptase activity), SYBR Green I and reaction buffer were included in the LightCycler-RNA Master SYBR Green I kit (Roche Diagnostics). […] Cell. […] Detection of fluorescent product was performed at the end of the extension step of each cycle. To verify the specific products, melting curve analysis and gel electrophoresis were done. The data were quantified by the Fit Points method with LightCycler Data Analysis software. […] Hormone treatments and RT-PCR were done twice.

UT-OC-5 cells = test: Cell growth assay, crystal violet, 11 days; format: cell-based, human; conditions: 200 nM VID 400 combined with hormones, especially 1,25(OH)2D3 or EB 1089, 11 days
Description: The human ovarian adenocarcinoma cell line, OVCAR-3 (ATCC, Manassas, Va.) was maintained, as recommended by the supplier, in RPMI 1640 medium (Sigma Aldrich, St. Louis, Mo.) supplemented with 10% FBS, 10 μg/ml insulin, 0.25% glucose and antibiotics (100 IU/ml penicillin, 100 μg/ml streptomycin). Human ovarian adenocarcinoma cell lines UT-OC-1, UT-OC-2, UT-OC-3, UT-OC-4, UT-OC-5 (Grenman, S., Engblom, P., Rantanen, V., Klemi, P. and Isola, J., “Cytogenetic Characterization of Five New Ovarian Carcinoma Cell Lines,” Acta Obstet. Gynecol. Scand., 76:83 (1997)) and SK-OV-3 and a human keratinocyte cell line HaCaT were grown in DMEM (Sigma Aldrich) with 10% FBS and antibiotics (100 IU/ml penicillin, 100 μg/ml streptomycin), and monkey kidney COS cells were maintained in DMEM/F12 (Sigma Aldrich) with 5% FBS. All cell lines were kept at 37° C. in a humidified 95% air/5% CO2 incubator.
When OVCAR-3 cells were on the logarithmic growth phase (70% confluent) the growth assay was started. For cell growth assay, 2,000 cell/200 μl/well were plated on 96-well culture plates. […] Ethanol was used as a vehicle, and it was also included in the control. The medium containing ethanol vehicle and/or hormones were changed to a fresh one every third day. Cell growth samples were taken 0, 1, 3, 5, 7, 9 and 11 days after the treatment.
Relative cell numbers were quantified as described previously (Kueng W, Silber E, Eppenberger U. Quantification of cells cultured on 96-well plates. Anal. Biochem., 182:16-9 (1989)). Cells were fixed on the bottom of the wells by addition of 10 μl of 11% glutaraldehyde solution in 0.1% phosphate buffer to 100 μl of medium. The plate was shaken 500 cycles/min for 15 min, washed 3 times by submersion in de-ionised water and air-dried. Fixed cells were stained with 0.1% solution of crystal violet dissolved in de-ionised water. After 20 min incubation, excess dye was removed by carefully washing with de-ionised water. The plate was air-dried prior to a bound dye solubilisation in 100 μl of 10% acetic acid. Relative cell number was given as absorbance units by measuring the optical density (590 nm) from each well using Victor 1420 multilabel counter (Wallac, Turku, Finland). Six determinations were used to calculate the mean optical density ±SD in each concentration at each time point. The absorbance value of day 0 (an overnight culture of 2,000 cells/well) was set as 0 by subtracting it from each value obtained from adjacent time-point measurements (days 1-11), and based on these values growth curves were created. Experiments were repeated 3-5 times. Day 11 was used to compare the effect of hormone treatments and 24OHase inhibitor. Statistical analyses were done using Student's t-test.
Cell growth samples were obtained after 11 days treatment.

[2] = tested on: ovarian cancer cell lines; test: Cell growth assay, crystal violet, 11 days, all cell lines; format: cell-based, human; conditions: 200 nM VID 400 alone
Description: The human ovarian adenocarcinoma cell line, OVCAR-3 (ATCC, Manassas, Va.) was maintained, as recommended by the supplier, in RPMI 1640 medium (Sigma Aldrich, St. Louis, Mo.) supplemented with 10% FBS, 10 μg/ml insulin, 0.25% glucose and antibiotics (100 IU/ml penicillin, 100 μg/ml streptomycin). Human ovarian adenocarcinoma cell lines UT-OC-1, UT-OC-2, UT-OC-3, UT-OC-4, UT-OC-5 (Grenman, S., Engblom, P., Rantanen, V., Klemi, P. and Isola, J., “Cytogenetic Characterization of Five New Ovarian Carcinoma Cell Lines,” Acta Obstet. Gynecol. Scand., 76:83 (1997)) and SK-OV-3 and a human keratinocyte cell line HaCaT were grown in DMEM (Sigma Aldrich) with 10% FBS and antibiotics (100 IU/ml penicillin, 100 μg/ml streptomycin), and monkey kidney COS cells were maintained in DMEM/F12 (Sigma Aldrich) with 5% FBS. […]
Relative cell numbers were quantified as described previously (Kueng W, Silber E, Eppenberger U. Quantification of cells cultured on 96-well plates. Anal. Biochem., 182:16-9 (1989)). […] Relative cell number was given as absorbance units by measuring the optical density (590 nm) from each well using Victor 1420 multilabel counter (Wallac, Turku, Finland). […] The absorbance value of day 0 (an overnight culture of 2,000 cells/well) was set as 0 by subtracting it from each value obtained from adjacent time-point measurements (days 1-11), and based on these values growth curves were created. […]

## C=C1CC[C@H](O)C/C1=C/C=C1\CCC[C@]2(C)[C@@H]([C@H](C)CCCC(C)(C)O)CC[C@@H]12 [25(OH)D3, monohydroxyvitamin D3]
1αOHase in OVCAR-3 cells; 500 nM 25(OH)D3, 0 hr, experiment I (FBS)
  1,25(OH)2D3: 23 pM
1αOHase in OVCAR-3 cells; 500 nM 25(OH)D3, 3 hr, experiment I (FBS)
  1,25(OH)2D3: 37 pM
1αOHase in OVCAR-3 cells; 500 nM 25(OH)D3, 24 hr, experiment I (FBS)
  1,25(OH)2D3: 33 pM
1αOHase in OVCAR-3 cells; 500 nM 25(OH)D3, 24 hr, experiment II (dextran charcoal-treated FBS)
  1,25(OH)2D3: 28 pM
[1]; 6 hr treatment
  induction of 24OHase mRNA expression: 3 fold
[1]; 24 hr treatment
  induction of 24OHase mRNA expression: 0.5 fold

## O=C(NC[C@@H](c1ccccc1)n1ccnc1)c1ccc(-c2ccc(Cl)cc2)cc1 [VID400, 2-(R)-4′-Chlorobiphenyl-4-carboxylic acid (2-imidazol-1-yl-2-phenyl-ethyl)-amide]
UT-OC-5 cells
  effect on cell growth: had an inhibitory effect on growth
[2]
  effect on cell growth: varied from slight stimulation to growth inhibition
1αOHase in OVCAR-3 cells; 200 nM VID400 + 500 nM 25(OH)D3, 24 hr, second experiment
  effect on production of 1,25(OH)2D3: did not have an effect on production of 1,25(OH)2D3
1αOHase in OVCAR-3 cells; 500 nM 25(OH)D3 + 200 nM VID400, 24 hr, experiment II (dextran charcoal-treated FBS)
  1,25(OH)2D3: 27 pM
